Calls of active or inactive are those of the source.
Key:
[1] = biological target: Estrogen receptor beta (Homo sapiens, UniProt Q92731);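 further: recombinant ER-beta bound to coactivator SRC1 peptide in presence of estradiol agonist; inhibitors block coactivator peptide binding and lower the FRET signal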
[2] = HepG2 cell cytotoxicity, dose response, cytotoxicity control, cherry-picked samples (AID 1159577); assay type: functional, cell-based
[3] = P. falciparum Dd2 growth inhibitors, dose response, SYBR Green, cherry-picked samples (AID 1159567); assay type: functional, cell-based
[4] = THP-1 cell cytotoxicity, dose response, cytotoxicity control for non-replicating M. tuberculosis project (AID 489025); assay type: functional
[5] = Vero E6 cell cytotoxicity, dose response, cytotoxicity control for non-replicating M. tuberculosis project, secondary assay (AID 492998); assay type: functional, VeroE6; conditions: Vero C1008
[6] = microbe, parasite or virus in culture; assay type: functional; conditions: Mycobacterium tuberculosis
[7] = HepG2 cell cytotoxicity, dose response, cytotoxicity control for non-replicating M. tuberculosis project (AID 489018); assay type: functional; conditions: Mycobacterium tuberculosis
[8] = cells; assay type: functional
[9] = tested on: BJ; assay: cells; assay type: functional, cell-based; conditions: Homo sapiens
[10] = inhibitors of SNCA 5'UTR-driven reporter translation, confirmation, H4 neuroglioma cells, luminescence (AID 1988); assay type: functional, cell-based
[11] = inhibitors of firefly luciferase expression or activity, dose response, H4 neuroglioma cells, luminescence (AID 1990); assay type: functional, cell-based
[12] = cytotoxicity toward DRD oncogenic fibroblasts, dose response, cell-based, non-viral oncogenic, luminescence (AID 1934); assay type: functional; conditions: Homo sapiens
[13] = tested on: BJ; assay: cytotoxicity toward BJ-TERT-LT-ST fibroblasts, dose response, cell-based, RAS-independent, luminescence (AID 1935); assay type: functional; conditions: Homo sapiens;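 further: BJ fibroblasts immortalized with TERT plus LT and ST oncogenes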
[14] = inhibitors of SNCA 5'UTR-driven translation, confirmation, luminescence, H4 neuroglioblastoma cells, dose confirmation (AID 2454); assay type: functional, cell-based;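 further: H4 neuroglioblastoma cells carrying an alpha-synuclein 5'UTR luciferase reporter; potency for inhibition of the luciferase signal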
[15] = tested on: BJ; assay: cytotoxicity toward Ras-transformed BJeLR fibroblasts, dose response, cell-based, alamar blue fluorescence, cherrypicked samples (AID 2631); assay type: functional; conditions: Homo sapiens;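 further: confirmatory dose-response assay in RAS-dependent BJ fibroblasts engineered with TERT, LT and ST, with cytotoxicity read by fluorescence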
[16] = cytotoxicity in HEK-293T cells, dose response, cytotoxicity control for TCR NF-kB inhibitor project, luminescence, T-cell screen hits (AID 489026); assay type: functional, cell-based;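 further: cells exposed to compound about 14 hours before the viability readout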
[17] = tested on: BJ; assay: cytotoxicity toward BJ-TERT fibroblasts, dose response, cell-based, RAS-independent, luminescence (AID 1933); assay type: functional; conditions: Homo sapiens
[18] = luciferase reporter signal reduction – luminescence, H4-C neuroglioblastoma cells, dose response (AID 2458); assay type: functional, cell-based;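 further: H4 neuroglioblastoma cells stably carrying a luciferase reporter gene fusion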
[19] = cells; assay type: functional, cell-based
[20] = growth suppression of beta-catenin-knockout colon cells, dose response, cell-based, HCT116, human colon tumor (AID 1045); assay type: functional;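 further: HCT116 colon tumor cells with beta catenin knocked out; cells exposed to compound for 60 hours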
[21] = growth suppression of PTEN-null colon cells, dose response, cell-based, HCT116 PTEN knockout (AID 1047); assay type: functional;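 further: HCT116 colon tumor cells with PTEN knocked out; cells exposed to compound for 60 hours before readout; potency for loss of cell viability measured by luminescence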
[22] = biological target: T1, Ubiquitin-conjugating enzyme E2 N (Homo sapiens, UniProt P61088); assay type: functional
T1 sequence (P61088 whole entry): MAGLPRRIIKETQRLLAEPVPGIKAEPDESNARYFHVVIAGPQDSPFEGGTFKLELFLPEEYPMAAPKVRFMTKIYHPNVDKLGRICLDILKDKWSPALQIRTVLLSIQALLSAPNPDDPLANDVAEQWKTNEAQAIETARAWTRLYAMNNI

[23] = biological target: T2, Bcl-2-related protein A1 (Mus musculus, UniProt Q07440); assay type: functional;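 further: confirmatory dose–response counterscreen on Bfl-1, used to check hits from a UBC13 polyubiquitin inhibitor campaign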
T2 sequence (Q07440 whole entry): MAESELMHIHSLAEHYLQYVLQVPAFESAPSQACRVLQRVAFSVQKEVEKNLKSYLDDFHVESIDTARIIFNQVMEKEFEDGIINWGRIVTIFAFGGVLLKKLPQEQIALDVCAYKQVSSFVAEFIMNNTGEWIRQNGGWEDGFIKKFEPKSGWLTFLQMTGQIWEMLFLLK

[24] = biological target: T1, Ubiquitin-conjugating enzyme E2 N; assay type: functional; remark: listed apart in the source
[25] = biological target: T3, Cytochrome P450 1A2 (Homo sapiens, UniProt P05177);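 further: PubChem cytochrome P450 panel assay, CYP1A2 panel member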
T3 sequence (P05177 whole entry): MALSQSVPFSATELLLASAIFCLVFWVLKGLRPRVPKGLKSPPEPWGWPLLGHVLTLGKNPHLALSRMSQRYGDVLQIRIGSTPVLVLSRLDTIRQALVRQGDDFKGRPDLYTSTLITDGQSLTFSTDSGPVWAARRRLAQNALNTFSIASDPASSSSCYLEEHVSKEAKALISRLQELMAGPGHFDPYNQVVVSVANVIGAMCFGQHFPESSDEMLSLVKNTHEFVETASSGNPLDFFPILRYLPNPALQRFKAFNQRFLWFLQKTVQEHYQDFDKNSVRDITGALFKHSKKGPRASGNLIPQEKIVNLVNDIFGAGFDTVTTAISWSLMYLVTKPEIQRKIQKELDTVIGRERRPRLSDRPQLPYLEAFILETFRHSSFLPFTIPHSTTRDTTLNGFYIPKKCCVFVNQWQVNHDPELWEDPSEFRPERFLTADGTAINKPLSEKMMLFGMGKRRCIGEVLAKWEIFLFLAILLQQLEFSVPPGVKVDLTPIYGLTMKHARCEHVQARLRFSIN

[26] = biological target: Melanocortin receptor 4 (Homo sapiens, UniProt P32245); assay type: functional, cell-based;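 further: Cell-based assay with luminescence read-out, confirmatory dose-response testing for agonist activity of biased ligands at MC4R; human U2OS cells with tagged receptor and beta-arrestin; potency of agonists that increase receptor coupling to beta-arrestin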
[27] = Luminescence Cell-Based Dose Retest to Confirm Inhibitors of Cancer Stem Cells. [Related pubchem assays (depositor defined):AID2717, AID2721]; assay type: functional; conditions: Homo sapiens
[28] = inhibitors of intracellular T. cruzi replication, confirmation, NIH3T3 host cells, beta-gal luminescence (AID 2044); assay type: functional, cell-based;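 further: intracellular parasites grown in NIH/3T3 mouse fibroblasts as host cells; luminescent beta-galactosidase reporter signal from transgenic T. cruzi replicating inside host cells; inhibitors lower the luminescence signal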
[29] = cytotoxicity toward NIH3T3 fibroblasts, dose response, counter-screen, cell-based, ATP luminescence, mouse fibroblasts (AID 2010); assay type: functional;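 further: cells exposed to compound for about 90 hours before reading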
[30] = A Cell Based Secondary Assay To Explore Cytotoxicity of Compounds that Sensitize Mycobacterium Tuberculosis to Beta-Lactam Antibiotics.; assay type: functional
[31] = Luminescence Cell-Based Dose Response HTS to Identify Inhibitors of 5'UTR Stem-Loop Driven Prion Protein mRNA Translation in H4 Neuroglioblastoma Cells. [Related pubchem assays: 1827 (Project Summary), 1813 (Primary HTS)]; assay type: functional

Sequence of Estrogen receptor beta (Q92731 whole entry): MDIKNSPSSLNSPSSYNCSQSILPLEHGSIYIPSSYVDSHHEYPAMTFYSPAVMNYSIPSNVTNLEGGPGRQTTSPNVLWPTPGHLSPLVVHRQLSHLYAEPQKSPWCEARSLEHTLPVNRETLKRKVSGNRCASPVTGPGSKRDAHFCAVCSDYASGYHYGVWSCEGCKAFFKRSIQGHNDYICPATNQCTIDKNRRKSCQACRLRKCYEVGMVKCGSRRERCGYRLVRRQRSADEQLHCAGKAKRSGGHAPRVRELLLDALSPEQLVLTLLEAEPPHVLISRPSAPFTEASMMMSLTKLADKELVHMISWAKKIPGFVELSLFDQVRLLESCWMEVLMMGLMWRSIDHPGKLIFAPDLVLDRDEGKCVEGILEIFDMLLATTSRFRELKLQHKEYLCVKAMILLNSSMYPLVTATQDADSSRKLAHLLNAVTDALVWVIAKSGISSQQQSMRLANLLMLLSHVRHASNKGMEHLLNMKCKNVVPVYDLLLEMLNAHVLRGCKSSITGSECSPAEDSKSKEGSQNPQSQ
Sequence of Melanocortin receptor 4 (P32245 whole entry): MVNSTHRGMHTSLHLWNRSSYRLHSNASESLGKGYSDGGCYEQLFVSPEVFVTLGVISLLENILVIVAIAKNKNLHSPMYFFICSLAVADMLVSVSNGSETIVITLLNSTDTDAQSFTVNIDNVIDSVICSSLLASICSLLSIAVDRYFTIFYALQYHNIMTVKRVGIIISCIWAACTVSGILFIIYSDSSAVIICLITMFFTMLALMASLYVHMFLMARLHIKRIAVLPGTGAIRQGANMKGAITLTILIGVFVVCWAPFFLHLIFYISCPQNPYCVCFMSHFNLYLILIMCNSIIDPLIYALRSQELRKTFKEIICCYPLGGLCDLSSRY

With COc1ccccc1NC(=O)NC(N)=O the IC50 [1] was > 50 µM (not active).
In the case of Cc1cccc(-c2ccc([C@@H]3[C@H](CO)N4CCCCN(S(=O)(=O)c5cccc(C)c5)C[C@@H]34)cc2)c1, the AC50 [2] is reported as 8.89 µM (active) and the AC50 [3] is reported as 0.864 µM (active).
With CC(C)(C)OC(=O)NNc1c2ccccc2nc2ccccc12 the CC50 [4] was > 40 µM (active), the CC50 [5] was > 20 µM (active) and the CC50 [6] was > 40 µM (active). The CC50 [7] was 15.1 µM (active) and the IC50 [8] was 22.2 µM (active).
In the case of CCOc1ccccc1C(=O)N1CCN(c2cccc(Cl)c2)CC1, the EC50 [9] is reported as 2.85 µM (inconclusive), the EC50 [10] is reported as < 0.1 µM (active) and the EC50 [11] is reported as < 0.1 µM (active). The EC50 [12] was 2.65 µM (active), the EC50 [13] was 1.44 µM (active) and the EC50 [14] was 0.31 µM (active). The EC50 [15] was < 0.104 µM (active), the IC50 [16] was > 80 µM (inactive) and the EC50 [17] was 2.66 µM (inconclusive). For the same compound, the EC50 [18] was 0.229 µM (active) and the EC50 [19] was 0.331 µM (active).
With Cc1ccc2cc(C#N)c(SCc3nnc(-c4ccccc4[N+](=O)[O-])o3)nc2c1 the EC50 [20] was 4.3 µM (active) and the EC50 [21] was 3.33 µM (active).
In the case of NNC(=O)c1ccc(CN2C(=O)c3cccc4cccc2c34)cc1, the IC50 [22] is reported as 3.55 µM (active), the IC50 [23] is reported as > 20 µM (inactive) and the IC50 [24] is reported as 8.94 µM (active).
With Cc1ccccc1NC(=O)Cn1cnc2c1c(=O)n(C)c(=O)n2C the AC50 [25] was 15.8 µM (inconclusive) and the IC50 [1] was > 50 µM (not active).
For OC(CNCCc1ccc(C(F)(F)F)cc1)COc1cccc2ccccc12 (stereo not drawn), the CC50 [4] was 21.5 µM (active), the EC50 [20] was 10.7 µM (active) and the EC50 [21] was 12.7 µM (active). The EC50 [26] was > 89.2 µM (inactive), the AC50 [27] was 3.47 µM (active) and the EC50 [28] was 0.631 µM (active). For the same compound, the EC50 [29] was > 60 µM (inconclusive) and the IC50 [8] was 21.7 µM (active).
For CC(C)(C)Nc1nc(Nc2ccc([N+](=O)[O-])cc2)nc(NC(C)(C)C)n1, the EC50 [10] was > 120 µM (not active), the CC50 [30] was > 40 µM (active) and the EC50 [11] was > 120 µM (not active). The EC50 [31] was > 120 µM (not active).
